Results from patent publication US10729820B2, “Methods and processes for application of drug delivery polymeric coatings” (Ariste Medical, LLC, priority 2014, dated 2020).
Where a name gives a salt, the structure may show the parent alone. Read-outs that look alike come from different tables or passages of the source.

How the values were obtained:
[1] = type: physicochemical; details: 0.04 mg/cm^2
Procedure: Mesh was cut into three pieces, each approximate 4 cm^2. Each piece was weighed and it was made sure each piece was 50 mg as the actual area was, ca, 50.0 mg/(10.7 mg/cm^2)=4.7 cm^2. Thiolene formula (60 mg) (thiolene formula contains 67.22 wt % Pentaerythritol tetrakis(3-mercaptopropionate), 32.73 wt % […] Isocyanurate, and 0.05 wt % Hydroquinone:tertbutyl cathetol (1:1 mixture by moles), density is, ca, 1.2 g/mL) was dissolved in acetone aiming for the concentration of 100 mg/mL. […] Made three specimens as shown Table 1. The solutions were transferred onto PP mesh using an automatic pipette while the meshes were held by a plastic clamp. […] The thiolene formula loading was set to 2.5 mg/cm^2 in this experiment. […] HPLC runs of each specimen extract from methanol were performed under the conditions below: • Channel A: 35 mM sodium phosphate monobasic, 1 vol % triethylamine, final pH=7.5 with phosphoric acid • Channel B: acetonitrile • Column temperature=30° C. • Column type: 3×150 mm with 3.5 μm phenyl phase packing • Measurement: absorbance at 280 nm • Solvent flow rate: 1 mL/min • Solvent profile: 0-10 minutes 0-50 vol % Channel B; 10-20 minutes 50 vol % Channel B; 20-25 minutes 50-0 vol % Channel B. The concentration of minocycline hydrochloride and rifampin in specimen 2 after curing were determined using direct proportions of peak area integration of specimen 3. • a. […]

[2] = type: physicochemical; details: 0.04 mg/cm^2; remark: listed apart in the source
Procedure: Three pieces, each approximate 4 cm^2, of polypropylene (PP) mesh (density d=107 g/m^2) were cut and weighed to make sure that each piece has same weight. The weight was 42.7 mg for each piece as the actual area was, ca, 42.7 mg/(10.7 mg/cm^2)=4 cm^2. Polyethylene glycol dimethacrylate (PEG DM) (60 mg) was weighed and dissolve the in acetone making the concentration as 100 mg/mL. PTPO (4.5 mg) was weighed and dissolve in acetone making the concentration as 10 mg/mL. 5 μL of PTPO solution (containing 50 ug PTPO) in step and 100 μL of PEG DM solution (containing 10 mg of PEG DM formula, described above) were mixed in a 1.5 mL centrifuge tube so that the PTPO to PEG DM weight ratio was 0.5%. Took preweighed 157 μg of minocycline and 157 μg of rifampin, so that the drug loading was about 0.04 mg/cm^2 in this experiment for each drug. The solutions were transferred onto PP mesh using an automatic pipette while the meshes were held by a plastic clamp. Specimen 4 and 5 were subjected to curing while specimen 6 was chosen as a reference. The thiolene formula loading was 2.5 mg/cm^2 in this experiment. […]
Using direct proportions of peak integration of specimen 6, the concentration of minocycline hydrochloride and rifampin in specimen 5 after curing was determined. […] The antibiotics remaining after curing were calculated as: {(Peak integration of specimen 5)/(peak integration of specimen 6)}×100%

[3] = Antibiotics remaining after curing, EXP12-formula coating with Irgacure 2959, HPLC peak integration (Example 13); type: physicochemical; details: cured specimen with drug vs specimen 9, Irgacure 2959, UV-C chamber, curing time 10 mins
Procedure: All procedures are same as Example 12 except the PTPO is replaced by Irgacure 2959. The curing time was set to 10 mins. The UV source was Ariste UV-C chamber. […]

[4] = Antibiotics remaining after curing, pentaerythritol tetrakis(3-mercaptopropionate)/PEG DM thiolene coating (EXP12-formula) with PTPO, HPLC peak integration (Example 12); type: physicochemical; details: specimen 11 vs specimen 9, 0.4 mg/cm^2 each drug, curing time 10 mins
Procedure: All procedures were same as Example 11 except that the thiolene formula was replaced by the following formula (10 g of pentaerythritol tetrakis(3-mercaptopropionate) (from Sigma Aldrich, P #381462, lot #80896TMV) and 21.4 g of polyethylene glycol dimethacrylate (from Sigma Aldrich, P #409510, lot # MKBP0253V) (EXP12-formula). The curing time was set to 10 mins. The two specimens used in curing are shown in the following Table 11. Specimen 9 as discussed in Example 11 was used as a standard.
The top is specimen 9 and the bottom is the cured specimen 11 with drug loading.

[5] = type: physicochemical; details: 0.4 mg/cm^2
Procedure: Three 35.3 mg, 3.24 cm^2 pieces of polypropylene mesh were cut. About 80 mg thiolene formula (67.22 wt % pentaerythritol tetrakis(3-mercaptopropionate), 32.73 wt % triallyl isocyanurate, and 0.05 wt % hydroquinone:tertbutyl cathetol (1:1 mixture by moles), density is, ca, 1.2 g/mL) was weighed and dissolve the formula in acetone aiming for the concentration of 200 mg/mL. Weighed about 2 mg PTPO and dissolved it in acetone aiming for the concentration of 10 mg/mL. Took 8.1 μL of solution of PTPO (which contained 81 ug PTPO) and 81 μL of the thiolene solution (which contained 16.2 mg of thiolene formula) and mixed them in a 1.5 mL centrifuge tube, so that the PTPO to monomer weight ratio was 0.005. The thiolene formula to PP mesh ratio was 5 mg/cm^2. Drugs were dissolved in methanol and drug/methanol solutions were mixed with monomer/acetone solutions such that solvent ratios were at 2:1 acetone:methanol for drug containing specimens (Table 8). Those specimens not containing drug used pure acetone solvents in the coating formulation. […]
The concentration of minocycline hydrochloride and rifampin in specimen 8 was determined using direct proportions of peak area integrations and taking of […] as 100% drug control. […] The antibiotics remaining after curing was calculated as: {(Peak integration of specimen 8)/(peak integration of specimen 9)}×100%

[6] = Drug survival during polymerization and post cure loading, BPDM/NTG-GMA methacrylate coating on DualMesh ePTFE, HPLC of methanol extracts (Example 4); type: physicochemical; details: drugs in casting solution, theoretical 400 μg/cm^2 each drug, methanol extract
From the text: An acetone:ethanol:BPDM solution:NTG-GMA solution in 1:1:1:1 volume ratio was used to coat DualMesh Biomaterial with drugs both present during the polymerization process and loaded into the polymer network after curing had been performed. Circular 0.785 cm^2 samples of DualMesh were coated. In the version were drugs were included in the casting solution, both minocycline hydrochloride and rifampin were incorporated at levels such if no degradation were to have occurred each drug would have been loaded at a bulk surface area density of 400 μg/cm^2. The post-cure loaded version was created by coating the DualMesh with the same amount of polymer coating, and then submerging the specimen in a 5 mL methanol bath containing each drug at 10 mg/mL overnight (˜18 hours) at 4° C. After soaking in the methanol/drug solution, specimens were retrieved from the loading solution and allowed to air dry. Once dried they were passed through two rinse solutions using the following technique: forceps were used to hold specimens while contacting a minimal amount of the surface, vigorously shake the specimen in a 15 mL methanol rinse for 15 seconds, move specimen to a second 15 mL methanol bath and vigorously shake for an additional 15 seconds, and finally allow to air dry. Shaking was performed by moving the forceps back while holding the specimen submerged in the rinse. […]

[7] = Drug destruction on curing, thiolene coating with PTPO on polypropylene mesh, HPLC of methanol extracts (Example 6); type: physicochemical; details: 0.1 wt % PTPO, halogen dental curing lamp, six coats, theoretical 0.2 mg/cm^2 each drug
Procedure: 1:1:8 weight ratio of monomer (67.22 wt % pentaerythritol tetrakis(3-mercaptopropionate), 32.73 wt % triallyl isocyanurate, and 0.05 wt % hydroquinone:tertbutyl cathetol (1:1 mixture by mole)):methanol:acetone containing minocycline hydrocholoride and rifampin at 50 mg/mL of each drug blend was made. PTPO (BASF P/N 56415733) was added at 0.1 wt %. Polymerization was induced using a halogen dental curing lamp through curing at a distance 2″ from the light guide for 10 seconds on each side of the mesh. Six coats were applied to result in a theoretical loading of 0.2 mg/cm^2 of each drug. HPLC analysis of methanol extracts indicated 72% and 69% destruction of minocycline hydrochloride and rifampin, respectively. High degradation rates may be the result of the phosphine oxide initiator, which could destroy these drugs upon activation.

CN(C)c1ccc(O)c2c1C[C@H]1C[C@H]3[C@H](N(C)C)C(O)=C(C(N)=O)C(=O)[C@@]3(O)C(O)=C1C2=O [Minocycline, minocycline hydrochloride]
Remaining after curing [1]: 88%
Remaining after curing [2]: 76%
Remaining after curing [3]: 85%
Remaining after curing [4]: 54%
Remaining after curing [5]: 64%

CO[C@H]1/C=C/O[C@@]2(C)Oc3c(C)c(O)c4c(O)c(c(/C=N/N5CCN(C)CC5)c(O)c4c3C2=O)NC(=O)/C(C)=C\C=C\[C@H](C)[C@H](O)[C@@H](C)[C@@H](O)[C@@H](C)[C@H](OC(C)=O)[C@@H]1C [Rifampin, rifampin]
Remaining after curing [1]: 87%
average drug survival during the polymerization process [6]: 79%
destruction of drug [7]: 69%
Remaining after curing [2]: 97%
Remaining after curing [3]: 85%
Remaining after curing [4]: 58%
Remaining after curing [5]: 61%
